Measurements reported in US12109284B2, “Compositions comprising fluoride and calcium and method for preparing them” (DENTHERAPY LTD, priority 2016, dated 2024).

What was measured:
[1] = cited from earlier work; for Buffer range: pH
[2] = Microindentation cycling re-mineralisation model (Example 4); design: species or system human
Experimental: Citric acid eroded human enamel specimens were placed into a cycling re-mineralisation model where they were cycled between a treatment, artificial saliva and citric acid five times a day over five days. Three different treatments were tested and were: 1. 2% OPN formulation containing 500 ppm fluoride. 2. 500 ppm fluoride solution. 3. Deionised water. At the end of each of the five days the micro hardness of the enamel was measured by Vickers microindentation to determine the extent of the re-mineralisation of the enamel lesions.
The microhardness of the enamel was determined by indentation using a Vickers diamond-tip indenter. Each hardness value was determined from the average of ten individual measurements made centrally on each enamel specimen using 1.9N force over an indent time of 20 seconds. At the start of each set of measurements a calibration check was performed using a standard metal block to ensure the reproducibility of microhardness was within 3% of the test block micro hardness.

Molecule | pKa [1] | Buffer range [1] | Trend in remineralisation (microhardness ranking) ([2]; Day 1) | Trend in remineralisation (microhardness ranking) ([2]; Day 2) | Trend in remineralisation (microhardness ranking) ([2]; Day 3) | Trend in remineralisation (microhardness ranking) ([2]; Day 4 (probability 0.06)) | Trend in remineralisation (microhardness ranking) ([2]; Day 5) | Increase in hardness of eroded enamel compared to deionised water ([2]; all time points)
tris(hydroxymethyl)aminomethane | 8.97 | 7.5-9.5 |  |  |  |  |  | 
O=C([O-])O.[Na+] [sodium bicarbonate] |  | 5.1-8.0 |  |  |  |  |  | 
[F-].[Na+] [NaF, sodium fluoride] |  |  | OPN = NaF > DI water | OPN = NaF > DI water | NaF = OPN > DI water | OPN = NaF > DI water | OPN > NaF > DI water | statistically superior to deionised water
